From patent US20170368176A1 (priority 2014, published 2017)
Values joined by “and” are separate entries in the source; they are usually repeats but may differ in a detail not shown here. Equal values may be shown once. “Also recorded” adds a separate entry of the source. Where a name gives a salt, the structure may show the parent alone. Read-outs that look alike come from different tables or passages of the source.

Legend:
α2-AR = settings: cited from earlier work
peripheral nerve = settings: in vivo; cited from earlier work
rat cornea = test system: rat cornea; parameters: species or system Sprague-Dawley rats; settings: in vivo
rats [1] = settings: rat, in vivo
[2] = test system: human corneal limbal epithelial (HCLE) cells
rats [3] = settings: rat, in vivo; cited from earlier work
[4] = in vivo; cited from earlier work
[5] = in vivo; cited from earlier work; remark: listed apart in the source

## Clc1cccc(Cl)c1N=C1NCCN1 [CLON, clonidine hydrochloride]
α2-AR
  selectivity for the α2-AR, times less selective than dexmedetomidine: 8 times
Peripheral nerve
  effective concentrations in peripheral nerve: 10 µM
Rat cornea
  effect of the added agent on the duration of corneal block from TTX (in words): failed to prolong corneal block

## Cc1cccc([C@H](C)c2cnc[nH]2)c1C [DMED, (S)-4-[1-(2,3-Dimethylphenyl)ethyl]-3H-imidazole]
Rats [1]
  sedation, dose response of DMED (FIG. 4): sedation results from the higher two doses
Peripheral nerve
  effective concentrations in peripheral nerve: 2.7 µM
[2]
  HCLE cell survival compared to cells not exposed to drug: not reduced
Rats [3]
  perineural doses that produce undesired sedation: above 6 μg/kg
[4]
  half-life: approximately 2 hours
Rat cornea
  Block0.5 (duration without blink response to 0.5 cm filament): 0 ± 0 min
  Block2 (duration without blink response to 2 cm filament): 0 ± 0 min
  Block<6 (duration without blink response to any filament less than 6 cm): 0 ± 0 min
  corneal anesthesia (in words): did not produce any degree of corneal anesthesia
  effect of increasing doses of DMED on block (FIG. 4): do not increase block further

## CCCOc1ccc(C(=O)OCCN(CC)CC)cc1N [PPC, Proparacaine hydrochloride]
Rat cornea
  animals in which block0.5 occurred: all animals
Rat cornea; hydrochloride
  Block0.5 (duration without blink response to 0.5 cm filament): 18 ± 6 min
  Block2 (duration without blink response to 2 cm filament): 35 min and 35 ± 10 min
  Block<6 (duration without blink response to any filament less than 6 cm): 54 min and 54 ± 8 min

## CC[N+](CC)(CC)CC(=O)Nc1c(C)cccc1C.[Br-] [QX-314]
[5]
  duration of local anesthesia: approximately 24 h

## N=C1N[C@@H](O)[C@H]2[C@@H]3OC4(O)OC(C(O)[C@@]2(N1)[C@@H]4O)[C@]3(O)CO (stereo partly drawn) [TTX, Tetrodotoxin]
Rat cornea
  Block0.5 duration of corneal block: 12 ± 12.5 min
  Block2 duration of corneal block: 39 ± 22.7 min
  Block < 6 duration of corneal block: 117 ± 19.5 min
  animals in which block0.5 of any duration occurred: 5 of 14
  block<6 durations compared with 15 mM proparacaine: comparable to those from 15 mM proparacaine

## CCN(c1ccccc1)c1cc(NC)[n+](C)c(C)n1.[Cl-] [ZD7288, 4-(N-Ethyl-N-phenylamino)-1,2 dimethyl-6-(methylamino) pyrimidinium chloride]
Rat cornea
  effect of the added agent on the duration of corneal block from TTX (in words): prolongs the duration of corneal block from TTX

## CNC[C@H](O)c1ccc(O)c(O)c1 [epinephrine]
Rat cornea
  effect of the added agent on the duration of corneal block from TTX (in words): failed to prolong corneal block

## CNC[C@H](O)c1cccc(O)c1 [phenylephrine]
Rat cornea
  effect of the added agent on the duration of corneal block from TTX (in words): at low concentrations (but not high concentrations) prolonged the duration of corneal block from TTX; also recorded: greatly prolonged the duration of corneal block by TTX

## COc1cc2nc(N3CCN(C(=O)c4ccco4)CC3)nc(N)c2cc1OC [prazosin]
Rat cornea
  effect of the added agent on the duration of corneal block from TTX (in words): did not shorten the duration of corneal block from TTX
